Tested on: 282377-053-R-J1-PDC complex spheroid viability
Assay: Anticancer human tumor 282377-053-R-J1-PDC patient-derived colon adenocarcinoma cell line growth inhibition [RAS]
Conditions: for IC50: curve of first compound; for viability, T/C: stronger effect = lower value; active means viability on the fitted dose curve at most 10% of control; inactive means the rest
Excerpt: RAS pathway inhibitors in Combinations in Complex Spheroids
A high-throughput screen of multi-cell type tumor spheroids was designed to identify active combinations of RAS pathway inhibitors and targeted small molecules. Complex spheroids include a stromal component modeled by human endothelial cells (HUVEC) and fibroblasts modeled by human mesenchymal stem cells (MSCs). The concentration ranges selected for each drug and investigational agent were based upon clinically achievable concentrations if the clinical Cmax of the agent was known.
Compounds. The drugs and investigational agents: abemaciclib (NSC768073), cobimetinib (NSC768068), divarasib (GDC6063, NSC841802), docetaxel (NSC628503), GDC-1971 (RLY-1971, NSC841576), gemcitabine (NSC613327), inavolisib (NSC800729), ipatasertib (NSC767898), KB-0742 (NSC834161), MRTX-1133 (NSC836407), osimertinib (NSC779217), RMC-4630 (NSC839698), RMC-6236 (NSC851965), RMC-6291 (NSC852671), Ro-3306 (NSC812927), sapanisertib (NSC764658), SN-38 (NSC673596), staurosporine (NSC755774), SY5609 (NSC837396), and tovorafenib (DAY101, NSC766906), were obtained from the National Cancer Institute (NCI) Developmental Therapeutics Program Chemical Repository. The FDA-approved anticancer drug set is available from the NCI Developmental Therapeutics Program. […] The stock solutions were prepared in dimethyl sulfoxide (DMSO, Sigma-Aldrich, St. Louis, MO, cat. D2650) at 800-fold the tested concentration and stored at -70 degrees C prior to their use. All drugs and investigational agents were tested over a range starting from a high concentration at or near the clinical Cmax and decreasing in half-log increments. If the clinical Cmax for an agent had not been determined, the highest concentration tested was 10 microM.
Cell Culture. All cells were maintained in an incubator at 37 degrees C and 5% CO2 with 95% humidity. The PDC lines were cultured according to standard operating procedures established by the NCI PDMR. All PDCs were thawed and cultured in Matrigel-coated flasks prepared with a working solution of 1X Ham's F-12 nutrient mix, without supplementation (Invitrogen, Waltham, MA, cat. 11765054), 100 U/mL penicillin-streptomycin (Invitrogen, cat. 15140122), and 2.5% Matrigel (Corning Inc., Corning, NY, cat. 354248) for the first three passages. The 362531-283-R-J2-PDC and 782815-120-R-J1-PDC lines were cultured in 6C/Colon 1B media, which includes advanced DMEM/F-12 (Thermo Fisher Scientific, cat. 12634028), 10 mM HEPES (Thermo Fisher Scientific, cat. 15630080), 1X GlutaMAX supplement (Thermo Fisher Scientific, cat. 35050061), 0.1 mg/mL primocin (InvivoGen, San Diego, CA, cat. ant-pm-2), 10% defined fetal bovine serum, heat inactivated (HyClone Laboratories Inc., Logan, UT, cat. SH30070.03HI), 50% L-WRN conditioned media (ATCC, cat. CRL-3276), 1.25 mM N-Acetyl-L-cysteine (Sigma-Aldrich, cat. A9165), 10 mM nicotinamide (Sigma-Aldrich, cat. N0636), 1X B-27 supplement (Thermo Fisher Scientific, cat. 17504044), 1X N-2 supplement (Thermo Fisher Scientific, cat. 17502048), 50 ng/mL human EGF (Thermo Fisher Scientific, cat. PHG0311), and 10 microM Y-27632 dihydrochloride (Tocris Bioscience, cat. 1254). The K12877-001-R-J1-PDC line was cultured in 6I media, which includes all 6C/Colon 1B media plus 10 ng/mL human FGF-10 (PeproTech, cat. 100-26), 1 ng/mL human FGF-2 (PeproTech, cat. 100-18B), 1 µM prostaglandin E2 (Tocris Bioscience, cat. 2296), […] hydrocortisone (Sigma-Aldrich, cat. H4001), and […] bovine insulin (Sigma-Aldrich, cat. I6634). The K86415-001-R-J1-PDC line was cultured in 6D media, which includes all 6C/Colon 1B media components minus the L-WRN conditioned media. The 485176-168-R4-J1-PDC was cultured in PANC media, which includes all 6C/Colon 1B media plus 100 ng/mL human FGF-10 (PeproTech, cat. 100-26), 500 nM SB-431542 (Selleckchem, cat. S1067), and 10 nM gastrin (Tocris Bioscience, cat. 3006). […]

[1] = second compound 0.0316 µM, first compound 0.0316 µM
[2] = second compound 0.0316 µM, first compound 0.1 µM
[3] = second compound 0.0316 µM, first compound 0.316 µM
[4] = second compound 0.0316 µM, first compound 1 µM
[5] = second compound 0.0316 µM, first compound 3.16 µM
[6] = second compound 0.0316 µM, first compound 10 µM
[7] = second compound 0.1 µM, first compound 0.0316 µM
[8] = second compound 0.1 µM, first compound 0.1 µM
[9] = second compound 0.1 µM, first compound 0.316 µM
[10] = second compound 0.1 µM, first compound 1 µM
[11] = second compound 0.1 µM, first compound 3.16 µM
[12] = second compound 0.1 µM, first compound 10 µM
[13] = second compound 0.316 µM, first compound 0.0316 µM
[14] = second compound 0.316 µM, first compound 0.1 µM
[15] = second compound 0.316 µM, first compound 0.316 µM
[16] = second compound 0.316 µM, first compound 1 µM
[17] = second compound 0.316 µM, first compound 3.16 µM
[18] = second compound 0.316 µM, first compound 10 µM
[19] = second compound 1 µM, first compound 0.0316 µM
[20] = second compound 1 µM, first compound 0.1 µM
[21] = second compound 1 µM, first compound 0.316 µM
[22] = second compound 1 µM, first compound 1 µM
[23] = second compound 1 µM, first compound 3.16 µM
[24] = second compound 1 µM, first compound 10 µM
[25] = second compound 3.16 µM, first compound 0.0316 µM
[26] = second compound 3.16 µM, first compound 0.1 µM
[27] = second compound 3.16 µM, first compound 0.316 µM
[28] = second compound 3.16 µM, first compound 1 µM
[29] = second compound 3.16 µM, first compound 3.16 µM
[30] = second compound 3.16 µM, first compound 10 µM
[31] = second compound 10 µM, first compound 0.0316 µM
[32] = second compound 10 µM, first compound 0.1 µM
[33] = second compound 10 µM, first compound 0.316 µM
[34] = second compound 10 µM, first compound 1 µM
[35] = second compound 10 µM, first compound 3.16 µM
[36] = second compound 10 µM, first compound 10 µM
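Further: spheroids exposed to agents for seven days before readout.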
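Wherever viability, T/C is given: luminescence viability as percent of DMSO vehicle control wells.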

CC1(O)CCCC1n1c(=O)c(C(F)F)cc2cnc(NC3CCN(S(C)(=O)=O)CC3)nc21 (stereo unspecified) + C#Cc1c(F)ccc2cc(O)cc(-c3ncc4c(N5CC6CCC(C5)N6)nc(OCC56CCCN5CC(F)C6)nc4c3F)c12
6130 nM: IC50 (second compound 1 µM)
6080 nM: IC50 (second compound 0.1 µM)
inactive: viability, T/C [1] 102% | viability, T/C [2] 115% | viability, T/C [3] 135% | viability, T/C [4] 121% | viability, T/C [5] 121% | viability, T/C [7] 109% | viability, T/C [8] 117% | viability, T/C [9] 128% | viability, T/C [10] 125% | viability, T/C [11] 111% | viability, T/C [13] 117% | viability, T/C [14] 126% | viability, T/C [15] 120% | viability, T/C [16] 108% | viability, T/C [17] 112% | viability, T/C [19] 98.9% | viability, T/C [20] 111% | viability, T/C [21] 123% | viability, T/C [22] 110% | viability, T/C [23] 122% | viability, T/C [25] 94.4% | viability, T/C [26] 127% | viability, T/C [27] 130% | viability, T/C [28] 102% | viability, T/C [29] 113% | viability, T/C [31] 99% | viability, T/C [32] 117% | viability, T/C [33] 116% | viability, T/C [34] 121% | viability, T/C [35] 132%
active: viability, T/C [6] 2.6% | viability, T/C [12] 3.18% | viability, T/C [18] 3.11% | viability, T/C [24] 3.32% | viability, T/C [30] 4.31% | viability, T/C [36] 2.84%
6260 nM: IC50 (second compound 0.0316 µM)
6210 nM: IC50 (second compound 10 µM)
6170 nM: IC50 (second compound 3.16 µM)
6100 nM: IC50 (second compound 0.316 µM)

CCC(CC)c1cc(NC2CCC(N)C2)n2nccc2n1 (stereo unspecified) + C#Cc1c(F)ccc2cc(O)cc(-c3ncc4c(N5CC6CCC(C5)N6)nc(OCC56CCCN5CC(F)C6)nc4c3F)c12
inactive: viability, T/C [1] 113% | viability, T/C [2] 120% | viability, T/C [3] 89.4% | viability, T/C [4] 111% | viability, T/C [7] 113% | viability, T/C [8] 123% | viability, T/C [9] 94.9% | viability, T/C [10] 118% | viability, T/C [11] 10.2% | viability, T/C [13] 107% | viability, T/C [14] 102% | viability, T/C [15] 81.3% | viability, T/C [16] 96.9% | viability, T/C [19] 103% | viability, T/C [20] 95.4% | viability, T/C [21] 86.8% | viability, T/C [22] 84.6% | viability, T/C [25] 99.5% | viability, T/C [26] 112% | viability, T/C [27] 104% | viability, T/C [28] 100% | viability, T/C [29] 10.8% | viability, T/C [31] 101% | viability, T/C [32] 95.9% | viability, T/C [33] 96.3% | viability, T/C [34] 89.4%
active: viability, T/C [5] 9.2% | viability, T/C [6] 2.06% | viability, T/C [12] 2.09% | viability, T/C [17] 9.63% | viability, T/C [18] 2.11% | viability, T/C [23] 9.29% | viability, T/C [24] 2.23% | viability, T/C [30] 2.69% | viability, T/C [35] 9.18% | viability, T/C [36] 3.74%
1910 nM: IC50 (second compound 3.16 µM)
1700 nM: IC50 (second compound 1 µM)
2020 nM: IC50 (second compound 0.1 µM)
1760 nM: IC50 (second compound 10 µM)
1970 nM: IC50 (second compound 0.0316 µM)
1860 nM: IC50 (second compound 0.316 µM)

CCN1CCN(Cc2ccc(Nc3ncc(F)c(-c4cc(F)c5nc(C)n(C(C)C)c5c4)n3)nc2)CC1 + C#Cc1c(F)ccc2cc(O)cc(-c3ncc4c(N5CC6CCC(C5)N6)nc(OCC56CCCN5CC(F)C6)nc4c3F)c12
inactive: viability, T/C (second compound 0.0316 µM, first compound 0.00316 µM) 101% | viability, T/C (second compound 0.0316 µM, first compound 0.01 µM) 101% | viability, T/C [1] 112% | viability, T/C [2] 119% | viability, T/C [3] 127% | viability, T/C [4] 127% | viability, T/C (second compound 0.1 µM, first compound 0.00316 µM) 125% | viability, T/C (second compound 0.1 µM, first compound 0.01 µM) 95.5% | viability, T/C [7] 107% | viability, T/C [8] 106% | viability, T/C [9] 135% | viability, T/C [10] 126% | viability, T/C (second compound 0.316 µM, first compound 0.00316 µM) 105% | viability, T/C (second compound 0.316 µM, first compound 0.01 µM) 108% | viability, T/C [13] 109% | viability, T/C [14] 121% | viability, T/C [15] 117% | viability, T/C [16] 129% | viability, T/C (second compound 1 µM, first compound 0.00316 µM) 97.3% | viability, T/C (second compound 1 µM, first compound 0.01 µM) 100% | viability, T/C [19] 96.7% | viability, T/C [20] 103% | viability, T/C [21] 119% | viability, T/C [22] 132% | viability, T/C (second compound 3.16 µM, first compound 0.00316 µM) 107% | viability, T/C (second compound 3.16 µM, first compound 0.01 µM) 112% | viability, T/C [25] 103% | viability, T/C [26] 118% | viability, T/C [27] 134% | viability, T/C [28] 131% | viability, T/C (second compound 10 µM, first compound 0.00316 µM) 90.2% | viability, T/C (second compound 10 µM, first compound 0.01 µM) 90.1% | viability, T/C [31] 101% | viability, T/C [32] 111% | viability, T/C [33] 104% | viability, T/C [34] 120%
> 1000 nM: IC50 (second compound 0.0316 µM) | IC50 (second compound 0.1 µM) | IC50 (second compound 0.316 µM) | IC50 (second compound 1 µM) | IC50 (second compound 3.16 µM) | IC50 (second compound 10 µM)
